Data set [1] has as its target TIE-2 (Homo sapiens, UniProt Q02763). Description: ADP-Glo in vitro RTK inhibition assay, TIE-2. The data set is classed as biochemical. To be noted: ATP 50 μM. As to the method: (§1) In order to validate the direct effect of title compounds on VEGFR-2, Tie-2, and EphB4 kinases, we performed in vitro assay using the ADP-Glo Kinase Assay Kit (Promega, Wisconsin, USA).
(§2) The kinase assay was performed in a reaction mixture of final volume of 10 μL. […] The plate was incubated at 30°C for 1 h. After the plate was cooled at room temperature for 5 min, 5 μL of ADP-Glo reagent was added into each well to stop the reaction and consume the remaining […] within 40 min. At the end, 10 μL of kinase detection reagent was added into the well and incubated for 30 min to produce a luminescence signal. […] The assay plate was incubated at 30°C for 4 h. After the plate was cooled at room temperature for 5 min, 5 μL of ADP-Glo reagent was added into each well to stop the reaction and consume the remaining […] within 1 h. At the end, 10 μL of kinase detection reagent was added into each well and incubated for 30 min to produce a luminescence signal. The luminescence was read by VICTOR-X multi-label plate reader.
In general terms: ADP-Glo first removes unused ATP, then detects ADP through luciferase.

Data set [2] concerns the target VEGFR-2 (Homo sapiens, UniProt P35968). The data set is described as follows: ADP-Glo in vitro RTK inhibition assay, VEGFR-2. The class given is biochemical. To be noted: ATP 50 μM. The protocol:
as §1, §2

The target in data set [3] is T1, EphB4 (Homo sapiens, UniProt P54760).
T1 sequence (P54760 16-987): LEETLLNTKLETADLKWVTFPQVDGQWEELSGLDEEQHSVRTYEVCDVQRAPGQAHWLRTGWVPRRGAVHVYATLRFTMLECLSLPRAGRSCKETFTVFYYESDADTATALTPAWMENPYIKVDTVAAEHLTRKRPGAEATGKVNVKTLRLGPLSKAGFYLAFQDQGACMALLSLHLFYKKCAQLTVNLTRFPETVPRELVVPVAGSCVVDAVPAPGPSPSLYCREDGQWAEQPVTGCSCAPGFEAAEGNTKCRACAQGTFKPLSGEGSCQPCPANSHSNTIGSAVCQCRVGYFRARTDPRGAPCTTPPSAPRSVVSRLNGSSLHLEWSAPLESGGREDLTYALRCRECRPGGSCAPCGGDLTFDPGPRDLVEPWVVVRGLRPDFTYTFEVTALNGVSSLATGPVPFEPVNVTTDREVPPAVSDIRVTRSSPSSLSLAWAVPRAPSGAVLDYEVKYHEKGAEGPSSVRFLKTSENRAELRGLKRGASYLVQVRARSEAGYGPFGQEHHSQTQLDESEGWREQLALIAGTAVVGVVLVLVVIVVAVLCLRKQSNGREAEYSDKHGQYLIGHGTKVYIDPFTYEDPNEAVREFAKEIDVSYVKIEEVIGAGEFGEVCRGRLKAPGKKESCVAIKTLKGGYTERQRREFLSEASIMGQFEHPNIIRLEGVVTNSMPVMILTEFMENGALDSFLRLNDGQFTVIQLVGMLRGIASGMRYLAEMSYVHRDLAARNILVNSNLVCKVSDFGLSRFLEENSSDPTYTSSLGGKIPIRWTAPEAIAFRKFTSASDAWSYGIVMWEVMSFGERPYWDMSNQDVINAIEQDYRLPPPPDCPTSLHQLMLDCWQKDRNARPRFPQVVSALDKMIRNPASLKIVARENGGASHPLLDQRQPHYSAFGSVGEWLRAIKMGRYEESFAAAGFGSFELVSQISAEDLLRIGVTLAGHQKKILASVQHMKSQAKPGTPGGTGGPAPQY
Description: ADP-Glo in vitro RTK inhibition assay, EphB4. The class given is biochemical. The following applies: ATP 50 μM. As to the method:
as §1, §2

Data set [4] has as its system EA.hy926. Description: Human endothelial cell (EA.hy926) viability assay, CCK-8. The data set is classed as cell-based. To be noted: Homo sapiens, EA.hy 926, 24 h, CCK-8, 24 h treatment; read-out: Inhibition of human endothelial cell viability, EA.hy926 IC50. The protocol: In order to determine the anti-angiogenic effect of these multi-target inhibitors, we evaluated their effect on HECs (EA.hy926) viability using cell counting kit-8 (CCK-8) method.
The viability of HECs (EA.hy926) was assessed using the cell counting kit-8 (CCK-8, Sigma, USA) assay according to the manufacturer's instruction. […] After incubation at 37°C for 48 h, the cells were treated with tested compounds at various concentrations for 24 h. Subsequently, premixed CCK-8 and medium (10 μL) were added into the 96-well plates to monitor cell viability and were incubated at 37°C for 2 h. The number of viable cells was assessed by measurement of absorbance at 450 nm by a microplate reader. The viability rate was calculated as experimental OD value/control OD value.

TIE-2, sequence (Q02763 23-1124): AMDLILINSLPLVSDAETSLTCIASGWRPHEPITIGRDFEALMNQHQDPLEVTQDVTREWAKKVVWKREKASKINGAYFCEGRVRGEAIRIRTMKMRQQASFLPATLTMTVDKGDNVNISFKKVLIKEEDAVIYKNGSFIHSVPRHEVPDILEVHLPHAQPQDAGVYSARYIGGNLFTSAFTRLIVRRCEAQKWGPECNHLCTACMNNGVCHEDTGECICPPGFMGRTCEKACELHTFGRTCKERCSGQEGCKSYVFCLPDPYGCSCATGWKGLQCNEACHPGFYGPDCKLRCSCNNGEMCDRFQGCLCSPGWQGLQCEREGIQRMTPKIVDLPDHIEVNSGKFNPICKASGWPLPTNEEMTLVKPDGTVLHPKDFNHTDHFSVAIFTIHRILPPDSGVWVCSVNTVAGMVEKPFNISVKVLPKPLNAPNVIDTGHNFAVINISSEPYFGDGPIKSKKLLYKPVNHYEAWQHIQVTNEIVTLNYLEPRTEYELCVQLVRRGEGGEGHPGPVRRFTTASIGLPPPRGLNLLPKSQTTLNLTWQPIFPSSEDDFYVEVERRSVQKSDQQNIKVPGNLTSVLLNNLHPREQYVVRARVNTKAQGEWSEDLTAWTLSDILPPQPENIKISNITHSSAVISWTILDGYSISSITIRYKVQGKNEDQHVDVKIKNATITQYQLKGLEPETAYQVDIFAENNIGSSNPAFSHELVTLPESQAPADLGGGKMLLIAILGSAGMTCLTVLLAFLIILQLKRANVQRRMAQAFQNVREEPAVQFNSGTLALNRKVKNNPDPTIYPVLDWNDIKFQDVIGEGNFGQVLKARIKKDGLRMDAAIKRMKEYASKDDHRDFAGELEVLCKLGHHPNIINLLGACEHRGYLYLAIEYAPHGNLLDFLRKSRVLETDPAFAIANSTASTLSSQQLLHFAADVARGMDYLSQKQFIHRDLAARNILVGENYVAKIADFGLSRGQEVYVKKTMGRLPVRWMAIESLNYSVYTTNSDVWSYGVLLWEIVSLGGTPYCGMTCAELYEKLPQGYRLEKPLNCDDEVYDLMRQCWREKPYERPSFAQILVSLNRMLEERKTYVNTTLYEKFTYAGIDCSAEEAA
VEGFR-2, sequence (P35968 20-1356): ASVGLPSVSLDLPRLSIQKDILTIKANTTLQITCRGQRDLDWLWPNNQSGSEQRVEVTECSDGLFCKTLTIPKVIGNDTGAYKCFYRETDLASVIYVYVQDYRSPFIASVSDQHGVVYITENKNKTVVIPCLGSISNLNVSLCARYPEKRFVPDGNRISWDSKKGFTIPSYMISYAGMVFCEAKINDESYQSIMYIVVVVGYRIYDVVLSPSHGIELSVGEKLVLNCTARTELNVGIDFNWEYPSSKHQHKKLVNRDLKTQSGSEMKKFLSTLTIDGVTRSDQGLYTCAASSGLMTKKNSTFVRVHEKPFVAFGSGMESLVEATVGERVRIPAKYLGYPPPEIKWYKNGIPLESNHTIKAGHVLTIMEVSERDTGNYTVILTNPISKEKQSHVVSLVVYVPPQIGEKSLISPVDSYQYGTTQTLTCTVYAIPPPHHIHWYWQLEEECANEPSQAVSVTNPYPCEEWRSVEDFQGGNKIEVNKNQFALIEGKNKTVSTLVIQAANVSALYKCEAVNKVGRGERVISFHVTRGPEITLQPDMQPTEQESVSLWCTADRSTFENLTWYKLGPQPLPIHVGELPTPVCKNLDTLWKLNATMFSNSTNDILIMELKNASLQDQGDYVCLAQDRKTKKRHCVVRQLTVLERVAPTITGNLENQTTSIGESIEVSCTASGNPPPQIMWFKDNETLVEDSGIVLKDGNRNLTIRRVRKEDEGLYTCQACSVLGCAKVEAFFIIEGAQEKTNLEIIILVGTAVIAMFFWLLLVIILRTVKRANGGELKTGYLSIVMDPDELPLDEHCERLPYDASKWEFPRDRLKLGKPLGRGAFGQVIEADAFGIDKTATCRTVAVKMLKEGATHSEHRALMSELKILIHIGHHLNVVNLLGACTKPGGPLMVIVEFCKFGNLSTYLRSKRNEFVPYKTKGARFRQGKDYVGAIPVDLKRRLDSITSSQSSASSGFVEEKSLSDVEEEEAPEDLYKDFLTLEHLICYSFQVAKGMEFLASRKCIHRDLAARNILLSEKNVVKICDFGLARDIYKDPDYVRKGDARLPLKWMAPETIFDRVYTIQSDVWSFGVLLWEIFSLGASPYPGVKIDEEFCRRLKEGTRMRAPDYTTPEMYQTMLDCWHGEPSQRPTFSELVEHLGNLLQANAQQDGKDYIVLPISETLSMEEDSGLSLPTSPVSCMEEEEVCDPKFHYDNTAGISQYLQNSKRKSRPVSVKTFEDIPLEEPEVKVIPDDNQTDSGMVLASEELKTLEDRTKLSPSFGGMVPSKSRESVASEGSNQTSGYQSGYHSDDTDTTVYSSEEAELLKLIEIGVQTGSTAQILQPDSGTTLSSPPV

The term IC50 denotes the concentration that inhibits the measured activity by half. What is called melting point is the temperature, or range, at which the solid turns liquid. `FC(F)(F)c1cc(Br)cc(NC(=S)Nc2ccc(-c3cccnc3)cc2)c1` [DATU1, N-[3-bromo-5-(trifluoromethyl)phenyl]-N’-(4-pyridin-3-ylphenyl)thiourea]: the melting point was in the range of 197 to 199 °C. Besides, the IC50 in data set [1] worked out at 25.7 nM. Also, the half-maximal inhibitory concentration (IC50) in data set [2] turned out to be 20.6 nM. Inhibition in data set [3] was half-maximal at 20 nM (IC50).
Consider `FC(F)(F)Oc1cc(Br)ccc1NC(=S)Nc1ccc(-c2cccnc2)cc1` [DATU2, N-[4-bromo-2-(trifluoromethoxy)phenyl]-N’-(4-pyridin-3-ylphenyl)thiourea], for which the melting point was in the range of 144 to 145 °C. For the same molecule, in data set [1], the half-inhibitory concentration (IC50) came out at 64.2 nM. Also, in data set [4], the IC50 came out at 89.9 µM. The IC50 in data set [2] was over 500 nM. Also, in data set [3], the IC50 is over 500 nM.
Consider `FC(F)(F)Oc1ccc(NC(=S)Nc2ccc(-c3cccnc3)cc2)c(Br)c1` [DATU3, N-[2-bromo-4-(trifluoromethoxy)phenyl]-N’-(4-pyridin-3-ylphenyl)thiourea], for which the melting point was in the range of 162 to 163 °C. Moreover, half-maximal inhibition in data set [1] (IC50) was put at 20 nM. The half-maximal inhibitory concentration (IC50) in data set [4] was 122 µM. Moreover, in data set [2], the 50% inhibitory concentration (IC50) is over 500 nM. For the same molecule, the midpoint of inhibition in data set [3], the IC50, lay at 21.8 nM.
In the same order, the values of `FC(F)(F)Oc1ccc(Br)cc1NC(=S)Nc1ccc(-c2cccnc2)cc1` [DATU4, N-[5-bromo-2-(trifluoromethoxy)phenyl]-N’-(4-pyridin-3-ylphenyl)thiourea] are 154 to 155 °C, over 500 nM, 44.8 µM, over 500 nM and 18.7 nM.
For `FC(F)(F)Oc1ccc(Br)c(NC(=S)Nc2ccc(-c3cccnc3)cc2)c1` [DATU5, N-[2-bromo-5-(trifluoromethoxy)phenyl]-N’-(4-pyridin-3-ylphenyl)thiourea], in that order: 125 to 126 °C, over 500 nM, 246 µM, over 500 nM and 54.2 nM.
In the same order, the values of `S=C(Nc1ccc(-c2cccnc2)cc1)Nc1ccc(Cl)cc1Cl` [DATU6, N-(2,4-dichlorophenyl)-N’-(4-pyridin-3-ylphenyl)thiourea] are 156 to 157 °C, 66.5 nM, 24.4 µM, 23.5 nM and 3.86 nM.
As to `Fc1ccc(NC(=S)Nc2ccc(-c3cccnc3)cc2)cc1F` [DATU7, N-(3,4-difluorophenyl)-N’-(4-pyridin-3-ylphenyl)thiourea], the melting point was 139 to 140 °C. In data set [1], the IC50 came out at 48.4 nM. Moreover, the 50% inhibitory concentration (IC50) in data set [4] stood at 96.4 µM. The IC50 in data set [2] was determined as 45.2 nM. The same molecule yielded a 50% inhibitory concentration (IC50) in data set [3] of 10 nM.
For `S=C(Nc1ccc(-c2cccnc2)cc1)Nc1ccc(Cl)c(Cl)c1` [DATU8, N-(3,4-dichlorophenyl)-N’-(4-pyridin-3-ylphenyl)thiourea], in that order: 173 to 175 °C, 9.4 nM, 102 µM, 354 nM and over 500 nM.
For `FC(F)(F)c1cc(NC(=S)Nc2ccc(-c3cccnc3)cc2)cc(C(F)(F)F)c1` [DATU9, N-[3,5-bis(trifluoromethyl)phenyl]-N’-(4-pyridin-3-ylphenyl)thiourea], in that order: 157 to 158 °C, over 500 nM, 166 µM, over 500 nM and over 500 nM.
`S=C(Nc1ccc(-c2cccnc2)cc1)Nc1ccc2c(c1)OCO2` [DATU10, N-1,3-benzodioxol-5-yl-N’-(4-pyridin-3-ylphenyl)thiourea] gave a melting point of 147 to 148 °C. The molecule further returned a half-maximal inhibitory concentration (IC50) in data set [1] of over 500 nM. Besides, the IC50 in data set [4] was determined as 90.6 µM. Further, half-maximal inhibition in data set [2] (IC50) was put at 20.4 nM. The same molecule displayed a concentration for half-maximal inhibition (IC50) in data set [3] of over 500 nM.
Regarding `O=C(Nc1ccc(-c2ccc3c(=O)[nH]cnc3c2)cc1)Nc1cccc(C(F)(F)F)c1` [QDAU1, 1-(4-(4-oxo-3,4-dihydroquinazolin-7-yl)phenyl)-3-(3-(trifluoromethyl)phenyl)urea], the IC50 was 70.5 nM in data set [1], 57.9 µM in data set [4], 194 nM in data set [2] and over 500 nM in data set [3].
As to `O=C(Nc1ccc(-c2ccc3c(=O)[nH]cnc3c2)cc1)Nc1cccc(Cl)c1` [QDAU2, 1-(3-chlorophenyl)-3-(4-(4-oxo-3,4-dihydroquinazolin-7-yl)phenyl)urea], the melting point was over 300 °C. This molecule registered an IC50 in data set [1] of 83.9 nM. Besides, in data set [4], the half-inhibitory concentration (IC50) amounted to 66.3 µM. Half-maximal inhibition in data set [2] (IC50) required 57.9 nM. In data set [3], this molecule yielded a concentration for half-maximal inhibition (IC50) of over 500 nM.
In turn, `O=C(Nc1ccc(-c2ccc3c(=O)[nH]cnc3c2)cc1)Nc1cccc(F)c1` [QDAU3, 1-(3-fluorophenyl)-3-(4-(4-oxo-3,4-dihydroquinazolin-7-yl)phenyl)ure] returned a melting point of over 300 °C. This molecule also gave an IC50 in data set [1] of 90.7 nM. Further, the IC50 in data set [4] came out at 42.6 µM. For the same molecule, the 50% inhibitory concentration (IC50) in data set [2] was over 500 nM. This molecule also came in with a 50% inhibitory concentration (IC50) in data set [3] of 5.64 nM.
For `O=C(Nc1ccc(F)cc1)Nc1ccc(-c2ccc3c(=O)[nH]cnc3c2)cc1` [QDAU6, 1-(4-fluorophenyl)-3-(4-(4-oxo-3,4-dihydroquinazolin-7-yl)phenyl)urea], in that order: over 300 °C, 101 nM, 255 µM, 6.28 nM and over 500 nM.
For `O=C(Nc1ccc(OC(F)(F)F)cc1)Nc1ccc(-c2ccc3c(=O)[nH]cnc3c2)cc1` [QDAU7, 1-(4-(4-oxo-3,4-dihydroquinazolin-7-yl)phenyl)-3-(4-(trifluoromethoxy)phenyl)urea], the melting point is over 300 °C. This molecule also displayed an IC50 in data set [1] of 258 nM. Also, in data set [4], the IC50 was 68.5 µM. In addition, the 50% inhibitory concentration (IC50) in data set [2] is over 500 nM. In data set [3], this molecule showed an IC50 of over 500 nM.
Turning to `CC(C)c1cccc(NC(=O)Nc2ccc(-c3ccc4c(=O)[nH]cnc4c3)cc2)c1` [QDAU8, 1-(3-isopropylphenyl)-3-(4-(4-oxo-3,4-dihydroquinazolin-7-yl)phenyl)urea], the melting point is over 300 °C. For the same molecule, the IC50 in data set [1] was over 500 nM. The IC50 in data set [4] worked out at 76.2 µM. The molecule also returned an IC50 in data set [2] of 41.5 nM. Besides, in data set [3], the IC50 was over 500 nM.
Take `O=C(Nc1ccc(-c2ccc3c(=O)[nH]cnc3c2)cc1)Nc1ccc(Cl)c(C(F)(F)F)c1` [QDAU9, 1-(4-chloro-3-(trifluoromethyl)phenyl)-3-(4-(4-oxo-3,4-dihydroquinazolin-7-yl)phenyl)urea]: the melting point is over 300 °C. In addition, inhibition in data set [1] was half-maximal at 19.6 nM (IC50). Also, the concentration for half-maximal inhibition (IC50) in data set [4] was found to be 13 µM. This molecule also showed an IC50 in data set [2] of 15.8 nM. In data set [3], this molecule returned a half-maximal inhibitory concentration (IC50) of 24.4 nM.
In the same order, the values of `O=C(Nc1ccc(-c2ccc3c(=O)[nH]cnc3c2)cc1)Nc1ccc(C(F)(F)F)cc1` [QDAU10, 1-(4-(4-oxo-3,4-dihydroquinazolin-7-yl)phenyl)-3-(4-(trifluoromethyl)phenyl)urea] are over 300 °C, 52.7 nM, 125 µM, 50.7 nM and over 500 nM.

The record behind these values is PMC5739597, “Discovery and evaluation of triple inhibitors of VEGFR-2, TIE-2 and EphB4 as anti-angiogenic and anti-cancer agents” (Oncotarget, 2017).
